According to patent publication US7951956B2, “Benzoimidazole compound capable of inhibiting prostaglandin D synthetase” (Taiho Pharmaceuticals Co., Ltd., priority 2005, dated 2011):

Key:
[1] = system: antigen-induced nasal congestion; assay: Ameliorating activity for antigen-induced nasal congestion in guinea pig (Experiment 3); format: in vivo, Std:Hartley guinea pigs; settings: for AUC3-7 hr (nRaw increase %): 3 to 7 hours after induction
Experimental: A physiological saline solution containing 1 mg/mL of ovalbumin was subcutaneously injected into the backs of 5-week-old male Std:Hartley guinea pigs in an amount of 1 mL/body for active sensitization (primary sensitization). One week and two weeks after primary sensitization, 20 μL each of a physiological saline solution containing 10 mg/mL of ovalbumin was instilled into the nasal cavities using a micropipette (sensitization by nasal administration). Three weeks after primary sensitization, 10 μL each of a physiological saline solution containing 20 mg/mL of ovalbumin was instilled into the nasal cavities using a micropipette to induce a rhinitis reaction.
Before, and 10 minutes and 2, 3, 4, 5, 6 and 7 hours after nasal instillation of ovalbumin, the nasal airway resistance per 100 breaths was determined using a comprehensive respiratory function analysis system (“Pulmos-I”, a product of M.I.P.S. Co., Ltd.), and the average at each measurement time was calculated and expressed as nRaw. The increase % of nRaw was calculated according to the following formula. Increase(%)of nRaw at each measurement time=(nRaw at each measurement time−nRaw before induction)÷nRaw before induction×100
Nasal congestion was evaluated by measuring the area under the curve of nRaw increase % during the period of 3 to 7 hours after induction (AUC3-7 hr). “I3-7 hr” refers to the increase of nRaw during the period of 3 to 7 hours after induction. AUC3-7hr=½(I3hr+2×I4hr+2×I5hr+2×I6hr+I7hr)
To confirm the effects on nasal congestion by inhibition of PGD2 production, Compound 15 was selected as a representative compound and orally administered once a day for 15 consecutive days from the day of nasal sensitization performed 1 week after primary sensitization to the day of induction performed 3 weeks after primary sensitization. On the nasal sensitization days (1 week and 2 weeks after primary sensitization) and the induction day, compound 15 was orally administered 1 hour before intranasal instillation of ovalbumin.

[2] = system: PGD2 amount in bronchoalveolar lavage fluid; assay: Inhibitory activity for prostaglandin D2 production into bronchoalveolar lavage fluid in rats (Experiment 2); format: in vivo, Brawn Norway rats; settings: 10 mg/kg orally two hours before antigen inhalation; lavage fluid one hour after ovalbumin inhalation; sensitized rats
Experimental: A physiological saline solution containing 1 mg of ovalbumin and 4 mg of alum was subcutaneously injected into the backs of 7-week-old male Brawn Norway rats in an amount of 1 mL/body, and 0.06 mg of killed pertussis bacteria were intraperitoneally injected into each rat to perform active sensitization. Fourteen days after sensitization, the rats inhaled 2% ovalbumin for 10 minutes. One hour after inhalation, bronchoalveolar lavage fluid was collected. The amount of PGD2 in the bronchoalveolar lavage fluid was determined using an EIA kit. Two hours before antigen inhalation, a test compound (10 mg/kg) was orally administered.

[3] = target: human hematopoietic synthase (Homo sapiens, UniProt O60760); assay: Hematopoietic synthase inhibitory activity (Experiment 1); format: biochemical; settings: [14C] prostaglandin H2 10 μM, preincubated at 25° C. for 5 minutes, 1 minute reaction; read-out: Concentration of Pharmaceutical Compound Required to Inhibit 50% of Hematopoietic Synthase
human hematopoietic synthase, sequence (O60760 whole entry): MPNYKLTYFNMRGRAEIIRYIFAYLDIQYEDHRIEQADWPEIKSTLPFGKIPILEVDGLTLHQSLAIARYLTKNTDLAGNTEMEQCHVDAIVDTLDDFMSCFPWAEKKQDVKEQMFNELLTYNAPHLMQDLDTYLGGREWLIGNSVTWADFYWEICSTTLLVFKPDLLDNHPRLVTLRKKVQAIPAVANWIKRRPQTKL
Experimental: Experiment 1 was carried out according to the method of Urade, Y. et al. (J. Biol. Chem. 262, 3820-3825, (1987)). More specifically, the reaction mixture (49 μL); 100 mM Tris-HCl (pH 8.0), 1 mM reduced glutathione, 0.1 mg/mL γ-globulin, and human hematopoietic synthase (quantum sufficient), and a test compound (final concentration: 0.01-100 μM) were preincubated at 25° C. for 5 minutes. In place of the test compound, a DMSO solution (final concentration: 1%) was used in the solvent control group (Control Group). Subsequently, 1 μL of [^14C] prostaglandin H2 (final concentration: 10 μM) was added to start the reaction. One minute after the start of the reaction, 250 μL of a reaction stopper solution (diethylether/methanol/1M citric acid (30/4/1) cooled to −20° C. was added to stop the reaction.
Thereafter, 50 μL of the upper layer portion (organic solvent phase) was applied to a TLC plate and developed at −20° C. for 45 minutes (developer: diethylether/methanol/acetic acid (capacity ratio=90/2/1)). After drying the plate, the plate was exposed to an imaging plate for 1 to 24 hours, and the radioactivity corresponding to prostaglandin D2 was analyzed using an image analyzer (product of FUJIFILM Corporation). The area (%) occupied by the prostaglandin D2 band per lane was calculated, and the concentration of the test compound required to inhibit 50% of the hematopoietic synthase (IC50 value) was calculated by comparison with the Control group in each experiment.

SMILES	Inhibition (%) of the PGD2 Amount in Bronchoalveolar Lavage Fluid [2] [%]	IC50 [3] [nM]	melting point [°C]	also measured
O=C(O)CCn1c2c(c3ccccc31)C[C@H](NS(=O)(=O)c1ccc(F)cc1)CC2 [Ramatroban, reference compound]	–	–	–	Inhibition (%) of nasal congestion (AUC3-7 hr) ([1]; 30 mg/kg orally): 70.9%; AUC3-7 hr (nRaw increase %) ([1]; 30 mg/kg orally): 183.4 ± 29.3^$$ % · hr
Cc1[nH]c(C(=O)N2CCC=N2)c(C)c1-c1nc2cc(C(=O)c3ccccc3)ccc2[nH]1 [Compound 42, ((4-(5-Benzoylbenzimidazol-2-yl)-3,5-dimethylpyrrol-2-yl)-carbonyl)pyrazoline]	88	63	–	–
CON(C)C(=O)c1[nH]c(C)c(-c2nc3cc(C(=O)c4ccccc4)ccc3[nH]2)c1C [Compound 15, (N-Methoxy-N-methyl)-4-(5-benzoylbenzimidazol-2-yl)-3,5-dimethylpyrrole-2-carboxamide]	>72	256	127 to 132	Inhibition (%) of nasal congestion (AUC3-7 hr) ([1]; 3 mg/kg orally): 60.8%; AUC3-7 hr (nRaw increase %) ([1]; 3 mg/kg orally): 273.9 ± 69.1 % · hr; Inhibition (%) of nasal congestion (AUC3-7 hr) ([1]; 10 mg/kg orally): 76.5%; AUC3-7 hr (nRaw increase %) ([1]; 10 mg/kg orally): 153.5 ± 27.1 % · hr; Inhibition (%) of nasal congestion (AUC3-7 hr) ([1]; 30 mg/kg orally): 92.8%; AUC3-7 hr (nRaw increase %) ([1]; 30 mg/kg orally): 65.7 ± 28.9 % · hr
O=C(Nc1cccc2c(=O)cc(-c3nnn[nH]3)oc12)c1ccc(OCCCCc2ccccc2)cc1 [Pranlukast, reference compound]	–	–	–	Inhibition (%) of nasal congestion (AUC3-7 hr) ([1]; 30 mg/kg orally): 81.5%; AUC3-7 hr (nRaw increase %) ([1]; 30 mg/kg orally): 126.3 ± 41.7^$$ % · hr
Cc1[nH]c(C#N)c(C)c1-c1nc2cc(C(=O)c3ccccc3)ccc2[nH]1 [Compound 13, 2-(2-Cyano-3,5-dimethyl-pyrrol-4-yl)-5-benzoylbenzimidazole]	48	540	159 to 163	–
Cc1[nH]c(C(=O)N2CCC(C(=O)O)CC2)c(C)c1-c1nc2cc(C(=O)c3ccccc3)ccc2[nH]1 [Compound 45, ((4-(5-Benzoylbenzimidazol-2-yl)-3,5-dimethylpyrrol-2-yl)-carbonyl)piperidine-4-carboxylic acid]	–	643	267 to 271	–
Cc1c[nH]c(C)c1-c1nc2cc(C(=O)c3ccccc3)ccc2[nH]1 [Compound 7, 2-(2,4-Dimethyl-pyrrol-3-yl)-5-benzoylbenzimidazole]	–	588	207 to 214	–
Cc1cc(C)c(-c2nc3cc(C(=O)c4ccccc4)ccc3[nH]2)[nH]1 [Compound 52, 5-Benzoyl-2-(3,5-dimethylpyrrol-2-yl)-benzimidazole]	–	4800	225 to 229	–
Cc1[nH]c(C(=O)N2CCOCC2)c(C)c1-c1nc2cc(C(=O)c3ccccc3)ccc2[nH]1 [Compound 40, ((4-(5-benzoylbenzimidazol-2-yl)-3,5-dimethylpyrrol-2-yl)-carbonyl)morpholine]	65	592	–	–
O=C(c1ccccc1)c1ccc2[nH]c(-c3c[nH]c(C(=O)O)c3)nc2c1 [Compound 5, 4-(5-Benzoylbenzimidazol-2-yl)-pyrrole-2-carboxylic acid]	–	1450	239 to 241	–
CCOC(=O)c1c(C)[nH]c(-c2nc3cc(C(=O)c4ccccc4)ccc3[nH]2)c1C [Compound 53, 5-(5-Benzoylbenzimidazole-2-yl)-2,4-dimethylpyrrole-3-carboxylic acid ethyl ester]	–	3080	185 to 187	–
Cc1oc(C(=O)N2CCCC2)c(C)c1-c1nc2cc(C(=O)c3ccccc3)ccc2[nH]1 [Compound 3, (4-(5-Benzoylbenzimidazol-2-yl)-3,5-dimethyl-2-furanylcarbonyl)pyrrolidine]	36	178	–	–
